Values quoted from earlier work as cited in patent US7595169B2, “Method for determining percent platelet aggregation” (Accumetrics, Inc., priority 2005, dated 2009).

Tested on: platelet aggregation
Conditions: patients with stable angina pectoris scheduled for elective coronary stent placement; literature study

COC(=O)[C@H](c1ccccc1Cl)N1CCc2sccc2C1 [clopidogrel]
patients receiving the drug who did not achieve the expected platelet aggregation inhibition: at least 10%
